16 compounds from patent US11034661B2, “Substituted N′-hydroxycarbamimidoyl-1,2,5-oxadiazole compounds as indoleamine 2,3-dioxygenase IDO inhibitors” (Merck Sharp & Dohme Corp., priority 2017, dated 2021) can be followed below.

One assay has as its target HIS-tagged IDO1 protein (Homo sapiens (Human), UniProt P14902). The assay can be described thus: IDO1 Enzyme Assay. Type of assay: biochemical. The note with it: recombinant IDO1 40 nM, tryptophan substrate, fluorescence readout. The gist of the method:
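Recombinant E. coli-expressed HIS-IDO1 (40 nM final) in 50 mM Tris pH 7.0 with methylene blue, ascorbate and catalase, preincubated with compound 30 min at RT, then tryptophan added and reacted 60 min at RT. Quenched with methyl isonipecotate, heated, fluorescence read (ex 400/em 510 nm); IC50 from four-parameter logistic fit.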

Assay [1] addresses IDO1 in Hela cells stimulated with IFNγ (Homo sapiens (Human), UniProt P14902). Description: IDO1 Cellular Assay in Hela Cells Stimulated with IFNγ. Type of assay: cell-based. The settings on record: IFNγ 100 ng/mL, about 48 hours, fluorescence readout, read-out: IDO1 HELA Cell Assay, IC50. Summed up: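 IFNγ-stimulated (100 ng/mL) HeLa cells with 300 uM L-tryptophan were incubated with 10-point 3-fold compound dilutions for about 48 h at 37 °C. Kynurenine product was derivatized with methyl isonipecotate overnight and read by fluorescence (ex 400/em 510 nm). Signal was background-corrected using non-IFNγ cells and normalized to DMSO, and IC50 came from a four-parameter logistic fit.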

Assay [2] has as its target IDO1 in human whole blood stimulated with LPS and IFNγ (Homo sapiens (Human), UniProt P14902). The assay can be described thus: IDO1 Human Whole Blood Assay. Type of assay: cell-based. The settings on record: LPS and IFNγ 100 ng/mL, 18 h, kynurenine by LC/MS/MS. As to the method:
IDO1 Human Whole Blood Assay
Compounds to be tested were serially diluted in ten 3-fold steps in DMSO starting from 10 mM. 3 μL of compound dilutions or DMSO alone were then dispensed from the dilution plate into a polypropylene 96-well assay plate containing 97 μL of RPMI using an Echo 555 acoustic liquid handler (Labcyte). LPS and IFNγ was prepared in RPMI to a 10× of final conc. (1000 ng/mL), final concentration is 100 ng/mL.
Human whole blood was drawn in sodium heparin coated tubes from healthy internal donors. Two hundred forty μL of blood was transferred to each of the wells of a v-bottom 96 well plate. Thirty μL of compound was transferred from intermediate dilution plate, and incubated for 15 min. Thirty μL from stimulants was then transferred to blood and mixed thoroughly. Plate was covered with breathable membrane and incubated at 37° C. for overnight (18 h).
On day 2 isotope labeled standard of kynurenine and tryptophan was made in water at 10× concentration and 30 μL was added to the blood at 3 μM final concentration. The assay plates were centrifuged at 300×G for 10 min with no brake to separate plasma from red blood cells. Sixty μL of plasma samples was removed without disturbing red blood cells. Plasma was diluted with RPMI in 1:1 ratio and proteins were precipitated out with two volume of Acetonitrile. The plates was centrifuged at 4000×G for 60 min. Twenty μL of supernatant was carefully transferred to a 384 well plate contain 40 μL of 0.1% formic acid in water and analyzed by LC/MS/MS.
LC/MS/MS analyses were performed using Thermo Fisher's LX4-TSQ Quantum Ultra system. This system consists of four Agilent binary high-performance liquid chromatography (HPLC) pumps and a TSQ Quantum Ultra triple quadruple MS/MS instrument. For each sample, 5 μL were injected onto an Atlantis T3 column (2.1 mm×150 mm, 3 μm particle size) from Waters. The mobile phase gradient pumped at 0.8 mL/min was used to elute the analytes from the column at 25° C. The elution started at 0% B increasing linearly to 25% B at 6.5 min, holding at 25% for 1 min, re-equilibrating to 10 min. Mobile phase A consisted of 0.1% formic acid in water. Mobile phase B consisted of 0.1% of formic acid in acetonitrile. Data was acquired in positive mode using a HESI interface. The operational parameters for the TSQ Quantum Ultra instrument were a spray voltage of 4000 V, capillary temperature of 380° C., vaporizer temperature 400° C., shealth gas 60 arbitrary units, Aux gas 20 arbitrary units, tube lens 85 and collision gas 1.2 mTorr. SRM chromatograms of kynurenine (Q 1: 209.2>Q3:94.0) and internal standard (Q1: 215.3>Q3:98.2) were collected for 90 sec. The peak area was integrated by Xcalibur Quan software. The ratios between the kynurenine generated in the reaction and 2D6-Kynurenine spiked-in internal standard were used to generate percentage inhibition and IC50 values. Compounds were titrated and IC50's were calculated by 4 parameter sigmoidal curve fitting formula.

Chain of HIS-tagged IDO1 protein (P14902 whole entry): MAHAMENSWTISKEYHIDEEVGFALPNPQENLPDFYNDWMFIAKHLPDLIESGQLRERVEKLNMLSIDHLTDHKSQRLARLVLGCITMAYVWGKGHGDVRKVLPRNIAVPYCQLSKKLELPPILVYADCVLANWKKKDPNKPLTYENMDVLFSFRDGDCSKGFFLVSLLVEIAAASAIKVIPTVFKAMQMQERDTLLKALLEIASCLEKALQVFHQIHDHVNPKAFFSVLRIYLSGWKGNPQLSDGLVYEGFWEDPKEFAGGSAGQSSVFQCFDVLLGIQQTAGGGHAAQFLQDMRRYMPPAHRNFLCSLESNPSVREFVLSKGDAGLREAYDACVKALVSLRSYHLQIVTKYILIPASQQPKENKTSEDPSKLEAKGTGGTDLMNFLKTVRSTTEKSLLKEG
Chain of IDO1 in human whole blood stimulated with LPS and IFNγ (P14902 whole entry): as above
Chain of IDO1 in Hela cells stimulated with IFNγ (P14902 whole entry): as above

In general, IC50 refers to the concentration at which inhibition is half-maximal. Turning to `O=C(CO)N1CC(Oc2nonc2/C(=N/O)N[C@H]2Cc3ccc(F)cc32)C1` [Example 2, (S)—N-(4-fluorobicyclo[4.2.0]octa-1(6),2,4-trien-7-yl)-N′-hydroxy-4-((1-(2-hydroxyacetyl)azetidin-3-yl)oxy)-1,2,5-oxadiazole-3-carboximidamide], the figures for the IC50 (at HIS-tagged IDO1 protein; in assay [1]) were 75.7 nM and 93.5 nM, respectively. Also, the “IDO1 human whole blood assay, IC50” value in assay [2] came to 232.5 nM.

For `NC(=O)N[C@H]1C[C@@H](Oc2nonc2/C(=N/O)N[C@H]2Cc3ccc(F)cc32)C1` [Example 42, 4-{[cis-3-(carbamoylamino)cyclobutyl]oxy}-N-[(7S)-4-fluorobicyclo[4.2.0]octa-1,3,5-trien-7-yl]-N′-hydroxy-1,2,5-oxadiazole-3-carboximidamide], the results for the concentration for half-maximal inhibition (IC50) (on HIS-tagged IDO1 protein; in assay [1]) were 49 nM and 40 nM, respectively. Also, in assay [2], the “IDO1 human whole blood assay, IC50” value came to 387.6 nM.

In the case of `O=C(CO)N[C@H]1C[C@@H](Oc2nonc2/C(=N/O)N[C@H]2Cc3ccc(F)cc32)C1` [Example 38, N-{cis-3-[(4-{N-[(7S)-4-fluorobicyclo[4.2.0]octa-1,3,5-trien-7-yl]-N′-hydroxycarbamimidoyl}-1,2,5-oxadiazol-3-yl)oxy]cyclobutyl}-2-hydroxyacetamide], the IC50 at HIS-tagged IDO1 protein is 67.8 nM; in assay [1], 74.9 nM. Further, in assay [2], the “IDO1 human whole blood assay, IC50” value was found to be 518.6 nM.

For `CC(=O)NCCOc1nonc1/C(=N/O)N[C@H]1Cc2ccc(F)cc21` [Example 3, (S)—N-(2-((4-(N-(4-fluorobicyclo[4.2.0]octa-1(6),2,4-trien-7-yl)-N′-hydroxycarbamimidoyl)-1,2,5-oxadiazol-3-yl)oxy)ethyl)acetamide], the IC50 on HIS-tagged IDO1 protein came out at 58.5 nM; in assay [1] it was 51.4 nM. In addition, the “IDO1 human whole blood assay, IC50” value in assay [2] is 185.4 nM.

For `O=C(CO)N[C@H]1C[C@H](Oc2nonc2/C(=N/O)N[C@H]2Cc3ccc(F)cc32)C1` [Example 56, N-{trans-3-[(4-{N-[(7S)-4-fluorobicyclo[4.2.0]octa-1,3,5-trien-7-yl]-N′-hydroxycarbamimidoyl}-1,2,5-oxadiazol-3-yl)oxy]cyclobutyl}-2-hydroxyacetamide], the half-maximal inhibitory concentration (IC50) on HIS-tagged IDO1 protein came out at 1490 nM; in assay [1], 1340 nM. In addition, the “IDO1 human whole blood assay, IC50” value in assay [2] is 386.1 nM.

As for `O=C(c1nc[nH]n1)N1CC(Oc2nonc2/C(=N/O)N[C@H]2Cc3ccc(F)cc32)C1` [Example 30, N-[(7S)-4-fluorobicyclo[4.2.0]octa-1,3,5-trien-7-yl]-N′-hydroxy-4-{[1-(1H-1,2,4-triazole-3-carbonyl)azetidin-3-yl]oxy}-1,2,5-oxadiazole-3-carboximidamide], the half-inhibitory concentration (IC50) amounted to 56 nM on HIS-tagged IDO1 protein and 65.9 nM in assay [1]. In addition, in assay [2], the “IDO1 human whole blood assay, IC50” value came to 665.5 nM.

For `C[C@H](O)C(=O)N1CC(Oc2nonc2/C(=N/O)N[C@H]2Cc3ccc(F)cc32)C1` [Example 48, N-[(7S)-4-fluorobicyclo[4.2.0]octa-1,3,5-trien-7-yl]-N′-hydroxy-4-({1-[(2S)-2-hydroxypropanoyl]azetidin-3-yl}oxy)-1,2,5-oxadiazole-3-carboximidamide], the figures for the IC50 (at HIS-tagged IDO1 protein; in assay [1]) were 102 nM and 88.4 nM, respectively. In addition, the “IDO1 human whole blood assay, IC50” value in assay [2] was determined as 400.3 nM.

As for `CCC(=O)NCCOc1nonc1/C(=N/O)N[C@H]1Cc2ccc(F)cc21` [Example 33, N-{2-[(4-{N-[(7S)-4-fluorobicyclo[4.2.0]octa-1,3,5-trien-7-yl]-N′-hydroxycarbamimidoyl}-1,2,5-oxadiazol-3-yl)oxy]ethyl}propanamide], the figures for the half-inhibitory concentration (IC50) (on HIS-tagged IDO1 protein; in assay [1]) were 39.8 nM and 53 nM, respectively. In addition, in assay [2], the “IDO1 human whole blood assay, IC50” value is reported as 503.3 nM.

Consider `NS(=O)(=O)NCCOc1nonc1/C(=N/O)N[C@H]1Cc2ccc(F)cc21` [Example 1, (S)—N-(4-fluorobicyclo[4.2.0]octa-1(6),2,4-trien-7-yl)-N′-hydroxy-4-(2-(sulfamoylamino)ethoxy)-1,2,5-oxadiazole-3-carboximidamide], for which the IC50 amounted to 49.3 nM at HIS-tagged IDO1 protein and 106 nM in assay [1]. In addition, in assay [2], the “IDO1 human whole blood assay, IC50” value turned out to be 666.4 nM.

In the case of `O=C(CO)NCCOc1nonc1/C(=N/O)N[C@H]1Cc2ccc(F)cc21` [Example 5, N-{2-[(4-{N-[(7S)-4-fluorobicyclo[4.2.0]octa-1,3,5-trien-7-yl]-N′-hydroxycarbamimidoyl}-1,2,5-oxadiazol-3-yl)oxy]ethyl}-2-hydroxyacetamide], the concentration for half-maximal inhibition (IC50) was found to be 114 nM on HIS-tagged IDO1 protein and 322 nM in assay [1]. In addition, the “IDO1 human whole blood assay, IC50” value in assay [2] was 714.9 nM.

`O=C(COc1nonc1/C(=N/O)N[C@H]1Cc2ccc(F)cc21)NCCO` [Example 4, (S)-2-((4-(N-(4-fluorobicyclo[4.2.0]octa-1(6),2,4-trien-7-yl)-N′-hydroxycarbamimidoyl)-1,2,5-oxadiazol-3-yl)oxy)-N-(2-hydroxyethyl)acetamide]: the 50% inhibitory concentration (IC50) is 139 nM on HIS-tagged IDO1 protein and 324 nM in assay [1]. For the same compound, in assay [2], the “IDO1 human whole blood assay, IC50” value is 1414 nM.

As for `C[C@@H](CO)NC(=O)COc1nonc1/C(=N/O)N[C@H]1Cc2ccc(F)cc21` [Example 7, 2-[(4-{N-[(7S)-4-fluorobicyclo[4.2.0]octa-1,3,5-trien-7-yl]-N′-hydroxycarbamimidoyl}-1,2,5-oxadiazol-3-yl)oxy]-N-[(2S)-1-hydroxypropan-2-yl]acetamide], the half-inhibitory concentration (IC50) at HIS-tagged IDO1 protein stood at 72 nM; in assay [1], 88.6 nM. Moreover, the “IDO1 human whole blood assay, IC50” value in assay [2] came out at 1176 nM.

For `NS(=O)(=O)N[C@H]1C[C@@H](Oc2nonc2/C(=N/O)N[C@H]2Cc3ccc(F)cc32)C1` [Example 43, N-[(7S)-4-fluorobicyclo[4.2.0]octa-1,3,5-trien-7-yl]-N′-hydroxy-4-{[cis-3-(sulfamoylamino)cyclobutyl]oxy}-1,2,5-oxadiazole-3-carboximidamide], the values for the half-inhibitory concentration (IC50) (at HIS-tagged IDO1 protein; in assay [1]) were 36.6 nM and 45.4 nM, respectively. Moreover, the “IDO1 human whole blood assay, IC50” value in assay [2] is reported as 1440 nM.

Turning to `NC(=O)N[C@H]1C[C@H](Oc2nonc2/C(=N/O)N[C@H]2Cc3ccc(F)cc32)C1` [Example 57, 4-{[trans-3-(carbamoylamino)cyclobutyl]oxy}-N-[(7S)-4-fluorobicyclo[4.2.0]octa-1,3,5-trien-7-yl]-N′-hydroxy-1,2,5-oxadiazole-3-carboximidamide], the half-maximal inhibitory concentration (IC50) on HIS-tagged IDO1 protein stood at 216 nM; in assay [1] it was 328 nM. Moreover, the “IDO1 human whole blood assay, IC50” value in assay [2] is on record as 954.9 nM.

Take `NC(=O)NCCOc1nonc1/C(=N/O)NC1Cc2ccc(F)cc21` (stereo not drawn) [Example 11, 4-[2-(carbamoylamino)ethoxy]-N-(4-fluorobicyclo[4.2.0]octa-1,3,5-trien-7-yl)-N′-hydroxy-1,2,5-oxadiazole-3-carboximidamide]: the results for the half-inhibitory concentration (IC50) (at HIS-tagged IDO1 protein; in assay [1]) were 74.8 nM and 194 nM, respectively. Further, the “IDO1 human whole blood assay, IC50” value in assay [2] came to 262.4 nM.

Regarding `CS(=O)(=O)NCCOc1nonc1/C(=N/O)N[C@H]1Cc2ccc(F)cc21` [Example 6, N-[(7S)-4-fluorobicyclo[4.2.0]octa-1,3,5-trien-7-yl]-N′-hydroxy-4-{2-[(methylsulfonyl)amino]ethoxy}-1,2,5-oxadiazole-3-carboximidamide], the IC50 worked out at 48.3 nM at HIS-tagged IDO1 protein and 58.3 nM in assay [1]. The “IDO1 human whole blood assay, IC50” value in assay [2] is 351.3 nM.
